Measured values as given in the supplement of paper PMC10307832.

What was measured:
Experiment in all cases: relative viability (nuclei count vs DMSO), 5 days (fraction); higher = more cells survive
JZL-184 + Trametinib = compound: C1CN(CCC1C(C2=CC3=C(C=C2)OCO3)(C4=CC5=C(C=C4)OCO5)O)C(=O)OC6=CC=C(C=C6)[N+](=O)[O-] [JZL-184] + CC(=O)Nc1cccc(-n2c(=O)n(C3CC3)c(=O)c3c(Nc4ccc(I)cc4F)n(C)c(=O)c(C)c32)c1 [Trametinib] (partner 0.02 µM)
How it was run: (§1)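 Relative viability equals treated-well nuclei counts divided by vehicle-well nuclei counts. Counts came from 4× images of lung cancer cell lines grown in 1536-well plates for 5 days after pin-tool dosing on the day after seeding. Dosing used one drug alone or a fixed anchor-drug dose plus five library-drug doses (not always all listed) in √10 steps, and values are medians of duplicate plates.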

JZL-184 + Pictilisib = compound: C1CN(CCC1C(C2=CC3=C(C=C2)OCO3)(C4=CC5=C(C=C4)OCO5)O)C(=O)OC6=CC=C(C=C6)[N+](=O)[O-] [JZL-184] + CS(=O)(=O)N1CCN(Cc2cc3nc(-c4cccc5[nH]ncc45)nc(N4CCOCC4)c3s2)CC1 [Pictilisib] (partner 1 µM)
How it was run: as §1

JZL-184 + Crizotinib = compound: C1CN(CCC1C(C2=CC3=C(C=C2)OCO3)(C4=CC5=C(C=C4)OCO5)O)C(=O)OC6=CC=C(C=C6)[N+](=O)[O-] [JZL-184] + C[C@@H](Oc1cc(-c2cnn(C3CCNCC3)c2)cnc1N)c1c(Cl)ccc(F)c1Cl [Crizotinib] (partner 1 µM)
How it was run: as §1

JZL-184 + AZD7762 = compound: C1CN(CCC1C(C2=CC3=C(C=C2)OCO3)(C4=CC5=C(C=C4)OCO5)O)C(=O)OC6=CC=C(C=C6)[N+](=O)[O-] [JZL-184] + NC(=O)Nc1cc(-c2cccc(F)c2)sc1C(=O)N[C@H]1CCCNC1 [AZD7762] (partner 0.2 µM)
How it was run: as §1

JZL-184 + Olaparib = compound: C1CN(CCC1C(C2=CC3=C(C=C2)OCO3)(C4=CC5=C(C=C4)OCO5)O)C(=O)OC6=CC=C(C=C6)[N+](=O)[O-] [JZL-184] + O=C(c1cc(Cc2n[nH]c(=O)c3ccccc23)ccc1F)N1CCN(C(=O)C2CC2)CC1 [Olaparib] (partner 8 µM)
How it was run: as §1

Cell Line	relative viability (JZL-184 + Trametinib; first compound 0.04 µM)	relative viability (JZL-184 + Trametinib; first compound 0.4 µM)	relative viability (JZL-184 + Trametinib; first compound 1.265 µM)	relative viability (JZL-184 + Trametinib; first compound 4 µM)	relative viability (JZL-184 + Pictilisib; first compound 0.04 µM)	relative viability (JZL-184 + Pictilisib; first compound 1.265 µM)	relative viability (JZL-184 + Pictilisib; first compound 4 µM)	relative viability (JZL-184 + Crizotinib; first compound 0.04 µM)	relative viability (JZL-184 + Crizotinib; first compound 1.265 µM)	relative viability (JZL-184 + Crizotinib; first compound 4 µM)	relative viability (JZL-184 + AZD7762; first compound 0.04 µM)	relative viability (JZL-184 + AZD7762; first compound 0.4 µM)	relative viability (JZL-184 + AZD7762; first compound 1.265 µM)	relative viability (JZL-184 + AZD7762; first compound 4 µM)	relative viability (JZL-184 + Olaparib; first compound 0.04 µM)	relative viability (JZL-184 + Olaparib; first compound 0.4 µM)	relative viability (JZL-184 + Olaparib; first compound 1.265 µM)	relative viability (JZL-184 + Olaparib; first compound 4 µM)	relative viability (JZL-184 + Pictilisib; first compound 0.4 µM)	relative viability (JZL-184 + Crizotinib; first compound 0.4 µM)
LCLC-97TM1	0.215	0.182	0.222	0.206	0.259	0.237	0.201	0.574	0.505	0.271	0.281	0.134	0.244	0.303	0.437	0.374	0.371	0.385	–	–
NCI-H2170	1.01	0.855	0.864	0.825	0.341	0.332	0.331	1.38	1.27	1.17	0.899	0.794	0.928	0.761	0.68	0.613	0.617	0.544	0.309	1.17
NCI-H1993	0.496	0.51	0.517	0.559	0.721	0.847	0.794	0.956	0.934	0.903	0.704	0.725	0.885	0.803	1.11	1.05	1.13	0.966	0.864	0.805
NCI-H460	0.22	0.145	0.213	0.099	0.385	0.404	0.374	0.993	0.839	0.912	0.639	0.617	0.659	0.599	0.337	0.427	0.458	0.394	0.332	0.81
NCI-H1975	0.314	0.33	0.349	0.33	0.347	0.304	0.287	1.11	0.995	0.975	0.723	0.664	0.804	0.583	0.849	0.726	0.876	0.694	0.281	0.901
RERF-LC-KJ	0.952	0.868	0.876	0.781	0.508	0.676	0.47	0.844	0.856	0.742	1.11	0.963	0.895	1	0.976	0.911	0.895	0.905	0.513	0.75
NCI-H322M	0.456	0.48	0.513	0.482	0.494	0.554	0.495	0.965	0.886	0.825	0.549	0.523	0.629	0.521	0.785	0.591	0.774	0.733	0.472	0.971
NCI-H1651	0.848	0.872	0.787	0.848	0.842	0.536	0.499	0.896	0.895	0.87	0.427	0.455	0.456	0.474	0.24	0.176	0.196	0.207	0.533	0.839
HARA	0.678	–	0.652	0.696	0.356	0.424	0.577	1.17	0.995	1.03	0.126	–	0.43	0.379	0.762	–	0.762	0.947	0.363	0.99
H3255	0.71	0.581	0.684	0.549	0.524	0.526	0.49	1.17	0.91	0.786	0.945	0.743	0.948	0.86	0.614	0.574	0.587	0.481	0.454	0.748
NCI-H441	0.473	0.436	0.49	0.487	0.631	0.607	0.423	0.767	0.793	0.58	1.44	1.23	1	1.02	0.714	0.473	0.659	0.463	0.409	0.54
CAL-12T	0.341	0.356	0.352	0.341	0.415	0.686	0.422	0.993	0.621	0.497	0.712	0.531	0.7	0.613	0.836	0.701	0.786	0.777	0.263	0.607
NCI-H1792	0.347	0.406	0.495	0.448	0.304	0.302	0.28	1.04	1	0.97	0.747	0.548	0.713	0.858	0.349	0.304	0.465	0.432	0.232	0.713
NCI-H1437	0.495	0.482	0.479	0.445	0.466	0.366	0.468	0.938	0.888	0.841	1.19	1.07	1.15	1.19	0.665	0.61	0.632	0.636	0.408	0.889
HOP-62	0.372	0.4	0.375	0.371	0.69	0.901	0.94	1.01	1.05	0.839	0.617	0.53	0.754	0.417	0.49	0.328	0.529	0.507	0.822	0.905
